Laboratory results as given in the Kinase Knowledgebase extract (Sharma et al. 2016).
pIC50: −log10 of the molar value.

Target: CDK2 (human) (UniProt P24941)
Experiment: Enzyme Assay

CCC(CO)Nc1nc(NCc2ccccc2O)c2nnn(C(C)C)c2n1 (stereo not given) was tested, and the pIC50 was 5.92.

For CC(C)n1nnc2c(NCc3ccccc3O)nc(N[C@H]3CC[C@H](N)CC3)nc21, the pIC50 was 4.79.

For CC(C)n1nnc2c(NCc3cccc(O)c3)nc(N[C@H]3CC[C@H](N)CC3)nc21, the pIC50 was 5.31.

CCCCCCNc1nc(NC(CO)c2ccccc2)c2nnn(C(C)C)c2n1 (stereo not given) showed a pIC50 of under 4.00.

In the case of CC(C)C(CO)Nc1nc(NCc2cccc(O)c2)c2nnn(C(C)C)c2n1 (stereo not given), the pIC50 was 5.10.

COc1ccc(CNc2nc(N[C@@H]3CCCC[C@@H]3N)nc3c2nnn3C(C)C)cc1O showed a pIC50 of 4.86.

For CC(C)n1nnc2c(NCc3ccccc3)nc(N[C@H]3CC[C@H](N)CC3)nc21, the pIC50 was 4.95.

O[C@H]1CC[C@H](Nc2nc(Nc3cccc(Cl)c3)c3nnn(Cc4ccccc4)c3n2)CC1 gave a pIC50 of under 4.00.

CC(C)C(CO)Nc1nc(Nc2cccc(Cl)c2)c2nnn(C(C)C)c2n1 (stereo not given) was tested, and the pIC50 was 4.70.

With CC(C)C(CO)Nc1nc(NCc2ccccc2O)c2nnn(C(C)C)c2n1 (stereo not given) the pIC50 was 6.08.

Compound CCC(CO)Nc1nc(NCc2ccc(OC)c(O)c2)c2nnn(C(C)C)c2n1 (stereo not given) has a pIC50 of 5.64.

CC(C)n1nnc2c(Nc3cccc(Cl)c3)nc(N[C@H]3CC[C@H](N)CC3)nc21 gave a pIC50 of 5.96.

Compound CCC(CO)Nc1nc(NCc2cccc(O)c2)c2nnn(C(C)C)c2n1 (stereo not given) has a pIC50 of 5.00.

Compound CC(C)n1nnc2c(NCc3ccc(O)cc3)nc(N[C@H]3CC[C@H](N)CC3)nc21 has a pIC50 of 5.55.

Work on CC(C)n1nnc2c(NCc3ccccc3)nc(NCCCO)nc21 yielded a pIC50 of 4.00.

CC(C)C(CO)Nc1nc(NCc2ccccc2)c2nnn(C(C)C)c2n1 (stereo not given) showed a pIC50 of 5.14.

Work on CCC(CO)Nc1nc(NCc2ccccc2)c2nnn(C(C)C)c2n1 (stereo not given) yielded a pIC50 of 5.39.

O[C@H]1CC[C@H](Nc2nc(NCC3CCCCC3)c3nnn(Cc4ccccc4)c3n2)CC1 showed a pIC50 of under 4.00.

With CC(C)n1nnc2c(NCc3ccccc3O)nc(N[C@@H]3CCCC[C@@H]3N)nc21 the pIC50 was 5.39.

CC(C)n1nnc2c(NCc3ccccc3O)nc(NCc3ccccc3O)nc21 gave a pIC50 of under 4.00.
